In patent US20090203605A1, “Methods For Treating A Condition Characterized By Dysfunction In Protein Homeostasis” (THE SCRIPPS RESEARCH INSTITUTE, priority 2008, published 2009):

Key:
[1] = system: P356R α-mannosidase; assay: Lysed cell α-mannosidase activity in α-mannosidosis fibroblasts; assay type: cell-based, human
From the text: Lysosomal α-mannosidase is a broad specificity exoglycosidase involved in the ordered degradation of glycoproteins. Michalski et al, Biochim Biophys Acta-Mol Basis Dis 1455: 69-84, 1999. The P356R mutation in the α-mannosidase enzyme appears to compromise folding and trafficking, leading to very low lysosomal α-mannosidase activity and severe α-mannosidosis. […] The activity of cells harboring P356R α-mannosidase is approximately 18% of that of WT α-mannosidase, under the assay conditions employed. […] . FIG. 21A). […] .

[2] = system: R245H/E447K SGSH; assay type: cell-based, human; conditions: verapamil, 5-day treatment

Structure (SMILES): COc1ccc(CCN(C)CCCC(C#N)(c2ccc(OC)c(OC)c2)C(C)C)cc1OC (stereo not drawn) [verapamil]
- effect on α-mannosidase activity ([1]; brief exposure (1 day)): did not increase α-mannosidase activity significantly
- P356R α-mannosidase activity as % of WT α-mannosidase ([1]; verapamil 50 μM, 4 days): ≈ 56%
- effect on R245H/E447K sulfamidase activity [2]: did not change the sulfamidase activity significantly
